Data published in patent US8338624B2, “Isoflavone derivatives and uses thereof” (Yeda Research and Development Co., Ltd., priority 2007, dated 2012).

Tests used:
[1] = system: EKVX non small lung cancer cell line; assay: NCI In Vitro Cell Line Screening, EKVX; format: cell-based; conditions: Homo sapiens, read-out: log10 GI50 (converted)
Description: (§1) An in vitro cell line screen for the t-boc derivative of daidzein (compound 9) was performed at the NCI/NIH US utilizing the In Vitro Cell Line Screening Project (IVCLSP) (National Cancer Institute, Developmental Therapeutics Program, Information Technology Branch, Rockville, Md., USA).
(§2) The operation of this screen utilized 60 different human tumor cell lines, representing leukemia, melanoma and cancers of the lung, colon, brain, ovary, breast, prostate, and kidney. […] Using these algorithms, it is possible to assign a putative mechanism of action to a test compound, or to determine that the response pattern is unique and not similar to that of any of the standard prototype compounds included in the NCI database.
(§3) To facilitate analysis of the data, three endpoints were calculated for each cell line: The GI50 value, which is the negative log10 of the concentration required to inhibit the growth of that cell line by 50% (relative to untreated cells); TGI, the negative log10 of minimum concentration that causes total growth inhibition; and LC50, which reflects the negative log10 concentration needed to kill 50% of the cells. A Mean Graph was used as a way of easily visualizing the results from all 60 cell lines at once. To generate this graph, the mean of GI50 values across all 60 cell lines was calculated. […]

[2] = system: H295R adrenocarcinoma cells; assay: DNA synthesis by [3H]-thymidine incorporation, H295R cells; format: cell-based, human
Description: (§4) Cells were cultured in MEM supplemented with 10% FCS and antibiotics. Cells were grown to subconfluence and then treated with various hormones or agents as described by Somjen et al. (Somjen et al., 1998). The cells were characterized in terms of expression of mRNAs for estrogen […] by real time PCR, and the results are summarized in Table 1. N87, 320DM and H295R cells expressed mRNAs for both ERs. The ratio of ERα to ERβ was 1:8.5, 1:30 and 1:1.8 in N87, 320DM and H295R cells, respectively. Ovarian A2780 and prostate C4-24 cells expressed mainly mRNA for ERβ, and the ratio of ERβ to ERα was 300:1 and 70:1, respectively. MLS ovarian cells expressed mRNA only for ERβ. The ratio of ERα to ERβ in T47D cells has been reported to be 9:1.
(§5) [^3H]-Thymidine incorporation into DNA was used for the assessment of the various effects (proliferative or inhibitory) of various isoflavones, isoflavone derivatives and known cytotoxic drugs in the above-mentioned cells. Cells were grown until subconfluence using conditions described in Somjen et al. (Somjen et al., 1998) and then treated with various agents for 24 or 48 h as indicated. At the end of incubation, [^3H]-thymidine was added for two hours. Cells were then treated with 10% ice-cold trichloroacetic (TCA) for 5 min and washed twice with 5% TCA and then with cold ethanol. The cellular layer was dissolved in 0.3 ml of 0.3 M NaOH, aliquots were taken for counting radioactivity, and [^3H]-thymidine incorporation into DNA was calculated.

[3] = system: 320DM human colon cancer cells; assay: DNA synthesis by [3H]-thymidine incorporation, 320DM cells; format: cell-based
Description: as §4
as §5, with “(Somjen et al., 1998) and then treated with various agents for 24 or 48 h as indicated.” left out

[4] = system: human prostate C4-2B cancer cells; assay: DNA synthesis by [3H]-thymidine incorporation, C4-2B cells; format: cell-based
Description: as §4, §5

MLS ovarian xenografts = MLS ovarian xenografts in nude mice; format: in vivo; conditions: 9 iv 400 μg/mouse every other day
Text: Female CD1 nude mice (8-week old, ˜30 g) were housed and handled with free access to food and water in the animal facility according to the guidelines (1996) of the Institutional Animal Care and Use Committee of the Weizmann Institute of Science, Rehovot, Israel.
Thirty female nude mice (8 weeks old) were inoculated sub-cutaneously (sc) with MLS ovarian carcinoma cells (1.5×10^6/mouse). Ten days later, when the tumors were palpable, the mice were randomly divided into 3 groups (8-10 mice/group). The mice in each group were iv injected every other day either with a vehicle (Neowater, a solubilization enhancer, 0.1 ml), daunomycin dissolved in Neowater (200 μg/mouse in 0.1 ml vehicle, total dose during treatment 1 mg/mouse), or compound 9 dissolved in Neowater (400 μg/mouse in 0.1 ml vehicle, total dose during treatment 2 mg/mouse). During treatment, body weight was recorded to monitor toxicity of the treatment, and the tumors were measured with an external caliper. Tumor volume was calculated using the formula length×width×height×π/6. Statistical significance was assessed using student's t test, and differences were considered significant at p<0.05.

[5] = system: SK-MEL-5 melanoma cell line; assay: NCI In Vitro Cell Line Screening, SK-MEL-5; format: cell-based; conditions: Homo sapiens, read-out: log10 GI50 (converted)
Description: as §1, §2, §3

[6] = system: A2780 ovarian cancer cells; assay: DNA synthesis by [3H]-thymidine incorporation, A2780 cells; format: cell-based, human; conditions: compound at 3 μM
Description: as §4, §5

K-562 leukemia cell line = assay: NCI In Vitro Cell Line Screening, K-562; format: cell-based; conditions: Homo sapiens, K562, read-out: log10 GI50 (converted)
Description: as §1, §2, §3

`CC(C)(C)OC(=O)NCCCCCCNC(=O)COc1ccc2c(=O)c(-c3ccc(O)cc3)coc2c1` [Compound 9] was tested, and the GI50 [1] was 1950 nM, the inhibition at 3 µM ([2]; Homo sapiens, NCI-H295R, at 3 μM, read-out: inhibition of DNA synthesis / growth) was 92% and the “DNA synthesis, ratio experimental/control (E/C)” value ([2]; compound at 3 μM) was 0.08 ± 0.21. The “incubation time at which plateau of inhibition of DNA synthesis was reached” value [3] was 72 h, the “DNA synthesis, ratio experimental/control (E/C)” value ([3]; 9 (0.3 μM) + E2 30 nM) was 1.08 ± 0.16 and the “DNA synthesis, ratio experimental/control (E/C)” value ([3]; 9 (0.3 μM) + E2 0.3 μM) was 1.90 ± 0.05. For the same compound, the “anti-proliferative effect in presence of apoptosis inhibitor” value ([3]; 9 at 0.3 μM + Z-VADFK) was “the anti-proliferative effect of 9 was not discernible”, the “DNA synthesis, ratio experimental/control (E/C)” value ([3]; 9 at 0.3 μM + Z-VADFK (25 μM)) was 1.18 ± 0.14 and the “suppression of the proliferative effect of estradiol” value ([3]; 9 at 0.3 μM + estradiol 300 nM) was “could not suppress its proliferative effect”. For the same compound, the “DNA synthesis, ratio experimental/control (E/C)” value ([3]; 9 at 0.3 μM alone (Table 3)) was 0.63 ± 0.11, the “DNA synthesis, ratio experimental/control (E/C)” value ([3]; 9 at 0.3 μM alone (Table 4)) was 0.68 ± 0.14 and the “DNA synthesis, ratio experimental/control (E/C)” value ([3]; 9 at 3 μM + Z-VADFK (25 μM)) was 0.5 ± 0.11. The “DNA synthesis, ratio experimental/control (E/C)” value ([3]; 9 at 3 μM alone (Table 4)) was 0.04 ± 0.22, the “effect on [3H]-thymidine incorporation into DNA” value ([3]; 15 to 6000 nM) was “dose dependent decreases” and the inhibition at 0.3 µM ([3]; Homo sapiens, 9 at 0.3 μM alone) was 32%. The inhibition at 3 µM ([3]; Homo sapiens, 9 at 3 μM alone) was ≤ 96%, the “DNA synthesis, ratio experimental/control (E/C)” value ([3]; compound at 3 μM) was 0.08 ± 0.01 and the “DNA synthesis (% of control)” value ([3]; estradiol 30 nM + 0.3 μM compound 9) was 100%. The inhibition at 0.03 µM ([4]; Homo sapiens, at 30 nM) was 30%, the inhibition at 0.3 µM ([4]; Homo sapiens, at 300 nM) was ~50% and the “DNA synthesis, ratio experimental/control (E/C)” value ([4]; compound at 0.3 μM) was 0.28 ± 0.2. For the same compound, the “weight reduction or death of treated mice” value (MLS ovarian xenografts) was “No weight reduction or death”, the “weight reduction or death of treated mice” value (MLS ovarian xenografts; listed as t-Boc daidzein derivative) was “did not cause death or weight loss” and the GI50 [5] was 631 nM. The “DNA synthesis, ratio experimental/control (E/C)” value [6] was 0.1 ± 0.15 and the GI50 (K-562 leukemia cell line) was 646 nM.
